Source: ChEMBL document CHEMBL2424647, “Molecular docking studies of the interaction between propargylic enol ethers and human DNA topoisomerase IIα” (2013)

test system: HeLa; test: Growth inhibition of human HeLa after 48 hrs; format: functional; settings: not given

| GI50 [µM] | Structure (SMILES) |
| --- | --- |
| 2.9 | CCCCC[C@@H](C#CC(=O)OC)O/C=C/C(=O)OC |
| 2.6 | CCCCC[C@H](C#CC(=O)OC)O/C=C/C(=O)OC |
| 17 | CCCCCC(C#CC(=O)OC)O/C=C/C(=O)OC (racemic) |
| 3.4 | CCCCC(C#CC(=O)OC)O/C=C/C(=O)OC (racemic) |

test system: HBL-100; test: Growth inhibition of human HBL100 after 48 hrs; format: functional; settings: HBL-100, 48 h

| Structure (SMILES) | GI50 [µM] |
| --- | --- |
| CCCCC[C@@H](C#CC(=O)OC)O/C=C/C(=O)OC | 2.3 |
| CCCCC[C@H](C#CC(=O)OC)O/C=C/C(=O)OC | 3.3 |
| CCCCCC(C#CC(=O)OC)O/C=C/C(=O)OC (racemic) | 2.7 |
| CCCCC(C#CC(=O)OC)O/C=C/C(=O)OC (racemic) | 0.47 |

test system: WiDr; test: Growth inhibition of human WiDr after 48 hrs; format: functional; settings: not given

| Structure (SMILES) | GI50 [µM] |
| --- | --- |
| CCCCC[C@@H](C#CC(=O)OC)O/C=C/C(=O)OC | 24 |
| CCCCC[C@H](C#CC(=O)OC)O/C=C/C(=O)OC | 26 |
| CCCCCC(C#CC(=O)OC)O/C=C/C(=O)OC (racemic) | 13 |
| CCCCC(C#CC(=O)OC)O/C=C/C(=O)OC (racemic) | 3.6 |

test system: SW1573; test: Growth inhibition of human SW1573 after 48 hrs; format: functional; settings: SW1573, 48 h

| GI50 [µM] | Structure (SMILES) |
| --- | --- |
| 8.4 | CCCCC[C@@H](C#CC(=O)OC)O/C=C/C(=O)OC |
| 5.5 | CCCCC[C@H](C#CC(=O)OC)O/C=C/C(=O)OC |
| 1.3 | CCCCCC(C#CC(=O)OC)O/C=C/C(=O)OC (racemic) |
| 0.42 | CCCCC(C#CC(=O)OC)O/C=C/C(=O)OC (racemic) |
